# From US20110318431A1, “Pharmaceutical Compositions and Methods of Treating Neurological Insults” (ENDOGENX, priority 2008, published 2011)
# “Also recorded” adds a separate entry of the source. Where two headings read alike, the source gives them in different places.
# Legend:
# [1] = Evaluation of therapy for side effects of magnesium sulfate with and without mannitol treatment
# Protocol: Safety—safety of subjects was maintained at all times. Adverse events and clinical laboratory data were obtained. Serious and non-serious adverse effects and clinical laboratory data were compared between groups.
# Group 1. Magnesium sulfate 16 gm a day (4 vials each of 1 gm of magnesium sulfate mixed with 100 ml normal saline was infused 6 hourly for five days)
# Group 3. Magnesium sulfate 8 gm a day plus mannitol (2 vials each of 1 gm of magnesium sulfate mixed with 50 ml normal saline was infused 6 hourly for five days; in addition 100 ml of 20% mannitol once a day with first dose of magnesium sulfate was administered)
# Evaluation of therapy for side effects of magnesium sulfate with and without mannitol treatment
# [2] = Clinical study in patients with infarct: Glasgow outcome scale, Barthel Index, Modified Rankin Score; format: in vivo, human
# [3] = cited from earlier work
# [4] = 16 mmol bolus and 65 mmol continuous infusion over 24 hrs; cited from earlier work
# [5] = at the end of three months; 4 g IV and 10 g IM within 12 hours of injury, then 5 g IM every 4 hours for 24 hours; cited from earlier work
# [6] = cited from earlier work; remark: listed apart in the source
# [7] = pediatric TBI patients; 50 mg/kg IV then 8.3 mg/kg/hour for 24 hours; cited from earlier work
# [8] = magnesium therapy; cited from earlier work
# [9] = 283 patients with aneurysmal subarachnoid hemorrhage; cited from earlier work
# [10] = cited from earlier work; remark: listed apart in the source
# [11] = end of 24 hour infusion, cited from earlier work
# [12] = after one month of follow up; loading dose 16 mM then 6 mM/hour for 5 days IV; cited from earlier work
# [13] = cited from earlier work; remark: listed apart in the source
# [14] = cited from earlier work; remark: listed apart in the source
# [15] = cited from earlier work; remark: listed apart in the source
# [16] = number out of total 15 patients, magnesium sulfate 16 gm a day, five days
compound,measurement,setting,value
O=S(=O)([O-])[O-].[Mg+2] [magnesium sulfate],"Incidence of side effects, magnesium sulfate (16 gm) alone compared to magnesium sulfate (8 gm) plus mannitol",[1]; five days treatment,greater; also recorded: higher
same,Constipation,[1]; [16],4
same,Facial flushing,[1]; [16],8
same,Heart block,[1]; [16],3
same,Hypotension,[1]; [16],3
same,Nausea,[1]; [16],5
same,Paradoxical bradycardia,[1]; [16],3
same,Respiratory distress,[1]; [16],2
same,"Patient outcome, magnesium sulfate (16 gm) group compared to mannitol group",[2]; magnesium sulfate 16 gm a day for five days,improved
same,Effectiveness of magnesium sulfate (16 gm) versus magnesium sulfate (8 gm) plus mannitol,[2]; patients with cerebrovascular accidents,equally effective
same,Patients with good functional outcome,[3]; at 3 months,60%
same,Patient status on hospital arrival rated improved,"[3]; rated by paramedics, 10 mmol bolus and 64 mmol infusion over 24 hrs",20%
same,Patient status on hospital arrival rated unchanged,[3]; rated by paramedics,75%
same,Patient status on hospital arrival rated worsened,[3]; rated by paramedics,5%
same,Mortality versus placebo,[4],slightly higher
same,Primary outcome,[4],not improved
[Mg] [magnesium],Patients with favorable outcome including reduced mortality and intra-operative brain swelling,[5],73%
same,Target serum concentrations achieved,[6]; 16 mmol loading infusion,1.49 mmol/L
same,"Effects on heart rate, blood pressure, or blood glucose","[6]; loading dose 8, 12 or 16 mM followed by 65 mM infusion over 24 hours",no obvious effects
same,Adverse hemodynamic effects,[7],No adverse hemodynamic effects were observed
same,Outcome at six months,[8],failed to provide a favorable outcome
same,Delayed cerebral ischemia and subsequent poor outcome,[9],reduced
same,Serum magnesium level,"[10]; over 24 hours, 8 mmol over 15 minutes followed by 65 mmol over 24 hours IV, rose from 0.76 mM/L",1.42 mM/L
same,Blood pressure or adverse events versus placebo-treated patients,[10]; stroke patients,No differences
same,CSF ionized magnesium increase relative to baseline,[11],11%
same,CSF total magnesium increase relative to baseline,[11],15%
same,Serum magnesium concentrations relative to baseline,[11]; dose adjusted to serum 2.1-2.5 mM/L,doubled from baseline
same,"Patient outcome, outcome scales (Orgogozo, Mathew, Rankin)",[12],significant positive effect
same,Composite primary outcome at 6 months post-injury,"[13]; administration within 8 hours of moderate to severe TBI for 5 days, continuous infusion",did not show any beneficial effects
same,Mortality,[13]; high dose of magnesium,Significantly higher mortality
same,Composite score versus placebo,[13]; lower dose of magnesium,worse than the placebo treated patients
"OC[C@@H](O)[C@@H](O)[C@H](O)[C@H](O)CO [mannitol, D-mannitol]",Half life,[14]; humans with normal renal function,1.2 h
same,Osmolal gap corresponding to renal toxicity,[14]; humans,> 55 mosm/kg of water
same,Serum mannitol concentration at which renal toxicity / acute renal failure occurs,[14]; humans,> 1000 mg/dL
same,Half life,[14]; uremia patients,36 h
same,Effectiveness of mannitol compared to control,[2]; 100 ml 20% mannitol once a day for five days,not effective compared to control
same,"Glasgow outcome scale (GOS), Barthel Index (BI) and Modified Rankin Score (MRS), mannitol group versus control group","[2]; 100 ml 20% mannitol once a day for five days, day 1, day 5, day 15, day 30",similar
same,"Barthel Index (BI) and Modified Rankin Score (MRS), mannitol group compared to magnesium sulfate (8 gm) plus mannitol group","[2]; day 5, day 15, day 30",significantly higher
same,"Barthel Index (BI) and Modified Rankin Score (MRS), mannitol group compared to magnesium sulfate (16 gm) group","[2]; day 5, day 15, day 30",significantly higher
same,"Glasgow outcome scale (GOS), mannitol group compared to magnesium sulfate (8 gm) plus mannitol group","[2]; day 5, day 15, day 30",significantly lower
same,"Glasgow outcome scale (GOS), mannitol group compared to magnesium sulfate (16 gm) group","[2]; day 5, day 15, day 30",significantly lower
same,Mortality with acute renal failure,[15]; massive mannitol infusion to 4 male adults,2/4
same,Onset of acute renal failure after infusion,"[15]; massive mannitol infusion, Mean+SD",48 ± 22 h
